# Key:
# [1] = test system: Green Peach Aphid (Myzus persicae); experiment: B.3 Green peach aphid systemic test, artificial diet under membrane; format: in vivo; details: 72 h, concentration of the test solution 2500 mg/L, 3 days
# Summary of the method: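 Systemic uptake from artificial liquid diet beneath a membrane, compound formulated in 75% water/25% DMSO and added to diet at several concentrations, two replicates. 5-8 adult aphids fed on treated diet for 3 days at about 23±1° C. and 50±5% RH. Mortality and fecundity scored visually.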
# [2] = test system: Green Peach Aphid (Myzus persicae); experiment: B.13 Green peach aphid test on sprayed bell pepper plants; format: in vivo; details: 120 h, in comparison with untreated controls, after 5 days
# Text: B.13 Green Peach Aphid (Myzus persicae)
# The active compounds were formulated in cyclohexanone as a 10,000 ppm solution supplied in tubes. The tubes were inserted into an automated electrostatic sprayer equipped with an atomizing nozzle and they served as stock solutions for which lower dilutions were made in 50% acetone:50% water (v/v). A nonionic surfactant (Kinetic®) was included in the solution at a volume of 0.01% (v/v). Bell pepper plants at the first true-leaf stage were infested prior to treatment by placing heavily infested leaves from the main colony on top of the treatment plants. Aphids were allowed to transfer overnight to accomplish an infestation of 30-50 aphids per plant and the host leaves were removed. The infested plants were then sprayed by an automated electrostatic plant sprayer equipped with an atomizing spray nozzle. The plants were dried in the sprayer fume hood, removed, and then maintained in a growth room under fluorescent lighting in a 24-hr photoperiod at about 25° C. and about 20-40% relative humidity. Aphid mortality on the treated plants, relative to mortality on untreated control plants, was determined after 5 days.
structure (smiles),measurement,setting,value
N#CC(C#N)(Cc1ccc(C(F)(F)F)nc1)c1cc(F)cc(F)c1 [II-34],mortality at 2500 µg/mL,[1],≥ 75%
same,mortality at 300 ppm,[2],≥ 75%
